# Measurements: patent publication US6677368B2, “4-aryl substituted indolinones” (Sugen, Inc., priority 2000, dated 2004)
# How the values were obtained:
# PDGFR = molecular target: T1, PDGFR (UniProt P09619); test: PDGFR bioassay (ELISA, in vitro kinase activity); assay type: biochemical; settings: PDGFR-β expressing NIH 3T3 cell lysate, 20 μM ATP
# T1 construct: PDGFR-β expressing NIH 3T3 cell lysate (SUGEN, Inc.)
# Protocol: This assay is used to the in vitro kinase activity of PDGFR in an ELISA assay.
# 1. Corning 96-well ELISA plates
# 2. 28D4C10 monoclonal anti-PDGFR antibody (SUGEN, Inc.).
# 5. Blocking Buffer (same as for EGFR bioassay).
# 6. PDGFR-β expressing NIH 3T3 cell lysate (SUGEN, Inc.).
# 11. Kinase buffer phosphorylation mix: for 10 ml, mix 250 μl 1M TRIS, 200 μl 5M NaCl, 100 μl 1M MnCl2 and 501l 100 mM Triton X-100 in enough dH2O to make 10 ml.
# 12. NUNC 96-well V bottom polypropylene plates.
# 14. Rabbit polyclonal anti-phosphotyrosine serum (SUGEN, Inc.).
# 15. Goat anti-rabbit IgG peroxidase conjugate (Biosource Cat. No. ALI0404).
# 17. Hydrogen peroxide, 30% solution.
# 1. Coat Corning 96 well ELISA plates with […] 28D4C 10 in 100 μl PBS per well, hold overnight at 4° C.
# 2. Remove unbound 28D4C10 from wells by inverting plate to remove liquid. Wash 1× with dH2O. Pat the plate on a paper towel to remove excess liquid.
# 3. Add 150 μl of Blocking Buffer to each well. Incubate for 30 min. at room temperature with shaking.
# 4. Wash plate 3× with deionized water, then once with TBST. Pat plate on a paper towel to remove excess liquid and bubbles.
# 5. Dilute lysate in HNTG (10 μg lysate/100 μl HNTG).
# 6. Add 100 μl of diluted lysate to each well. Shake at room temperature for 60 min.
# 7. Wash plates as described in Step 4.
# 8. Add 80 μl working kinase buffer mix to ELISA plate containing captured PDGFR.
# 9. Dilute test compound 1:10 in TBS in 96-well polypropylene plates.
# 10. Add 10 μl diluted test compound to -ELISA plate. To control wells, add 10 μl TBS+10% DMSO. Incubate with shaking for 30 minutes at room temperature.
# 11. Add 10 μl ATP directly to all wells except negative control well (final well volume should be approximately 100 μl with 20 μM ATP in each well.) Incubate 30 minutes with shaking.
# 12. Stop reaction by adding 10 μl of EDTA solution to each well.
# 13. Wash 4× with deionized water, twice with TBST.
# 14. Add 100 μl anti-phosphotyrosine (1:3000 dilution in TBST) per well.
# Incubate with shaking for 30-45 min. at room temperature.
# 16. Add 100 μl Biosource Goat anti-rabbit IgG peroxidase conjugate (1:2000 dilution in TBST) to each well. Incubate with shaking for 30 min. at room temperature.
# 18. Add 100 μl of ABTS/H2O2 solution to each well.
# 19. Incubate 10 to 30 minutes with shaking. Remove any bubbles.
# 20. If necessary stop reaction with the addition of 100 μl 0.2 M HCl per well.
# 21. Read assay on Dynatech MR7000 ELISA reader with test filter at 410 nM and reference filter at 630 nM.
# FGFR1 = FGFR1 (Homo sapiens, UniProt P11362); test: FGFR1 bioassay (ELISA, in vitro kinase activity); assay type: biochemical; settings: purified GST-FGFR1, poly(Glu-Tyr) substrate
# Protocol: This assay is used to measure the in vitro kinase activity of FGF1-R in an ELISA assay.
# 1. Costar 96-well ELISA plates (Corning Catalog #3369).
# 2. Poly(Glu-Tyr) (Sigma Catalog #P0275).
# 4. 50 mM Hepes Buffer Solution.
# 5. Blocking Buffer (5% BSA/PBS).
# 6. Purified GST-FGFR1 (SUGEN, Inc.)
# 7. Kinase Dilution Buffer. Mix 500 μl 1M Hepes (GIBCO), 20 μl 5% BSA/PBS, 10 μl 100 mM sodium orthovanadate and 50 μl 5M NaCl.
# 9. ATP/MnCl2 phosphorylation mix: mix 20 μL ATP, 400 μL 1M MnCl2 and 9.56 ml dH2O.
# 10. NUNC 96-well V bottom polypropylene plates (Applied Scientific Catalog #AS-72092).
# 12. 0.05% TBST Add 500 μL TWEEN to 1 liter TBS.
# 13. Rabbit polyclonal anti-phosphotyrosine serum (SUGEN, Inc.).
# 14. Goat anti-rabbit IgG peroxidase conjugate (Biosource, Catalog #ALI0404).
# 1. Coat Costar 96 well ELISA plates with 1 μg per well Poly(Glu-Tyr) in 100 μl PBS. Store overnight at 4° C.
# 2. Wash coated plates once with PBS.
# 3. Add 150 μL of 5%BSA/PBS Blocking Buffer to each well. Incubate, with shaking, for 1 hr at room temperature.
# 4. Wash plate 2× with PBS, then once with 50 mM Hepes. Pat plates on a paper towel to remove excess liquid and bubbles.
# 5. Add 25 μL of 0.4 mM test compound in 4% DMSO or 4% DMSO alone (controls) to plate.
# 6. Dilute purified GST-FGFR1 in Kinase Dilution Buffer (5 ng kinase/50 μl KDB/well).
# 7. Add 50 μL of diluted kinase to each well.
# 8. Start kinase reaction by adding 25 μl/well of freshly prepared ATP/Mn++ (0.4 ml 1M MnCl2, 40 μL 10 mM ATP, 9.56 ml dH2O), freshly prepared).
# 9. Stop reaction with 25 μL of 0.5M EDTA.
# 10. Wash plate 4× with fresh TBST.
# 11. Make up Antibody Dilution Buffer: For 50 ml, mix 5 ml of 5% BSA, 250 μl of 5% milk and 50 μl of 100 mM sodium vanadate, bring to final volume with 0.05% TBST.
# 12. Add 100 μl per well of anti-phosphotyrosine (1:10000 dilution in ADB). Incubate, with shaking for 1 hr. at room temperature.
# 14. Add 100 μl per well of Biosource Goat anti-rabbit IgG peroxidase conjugate (1:6000 dilution in ADB). Incubate, with shaking for 1 hr. at room temperature.
# 15. Wash as in step 10 and then with PBS to remove bubbles and excess TWEEN.
# 16. Add 100 μl of ABTS/H2O2 solution to each well.
# 17. Incubate, with shaking, for 10 to 20 minutes. Remove any bubbles.
# 18. Read assay on Dynatech MR7000 ELISA reader: test filter at 410 nM, reference filter at 630 nM.
# Sequence of FGFR1 (P11362 22-822, species assumed): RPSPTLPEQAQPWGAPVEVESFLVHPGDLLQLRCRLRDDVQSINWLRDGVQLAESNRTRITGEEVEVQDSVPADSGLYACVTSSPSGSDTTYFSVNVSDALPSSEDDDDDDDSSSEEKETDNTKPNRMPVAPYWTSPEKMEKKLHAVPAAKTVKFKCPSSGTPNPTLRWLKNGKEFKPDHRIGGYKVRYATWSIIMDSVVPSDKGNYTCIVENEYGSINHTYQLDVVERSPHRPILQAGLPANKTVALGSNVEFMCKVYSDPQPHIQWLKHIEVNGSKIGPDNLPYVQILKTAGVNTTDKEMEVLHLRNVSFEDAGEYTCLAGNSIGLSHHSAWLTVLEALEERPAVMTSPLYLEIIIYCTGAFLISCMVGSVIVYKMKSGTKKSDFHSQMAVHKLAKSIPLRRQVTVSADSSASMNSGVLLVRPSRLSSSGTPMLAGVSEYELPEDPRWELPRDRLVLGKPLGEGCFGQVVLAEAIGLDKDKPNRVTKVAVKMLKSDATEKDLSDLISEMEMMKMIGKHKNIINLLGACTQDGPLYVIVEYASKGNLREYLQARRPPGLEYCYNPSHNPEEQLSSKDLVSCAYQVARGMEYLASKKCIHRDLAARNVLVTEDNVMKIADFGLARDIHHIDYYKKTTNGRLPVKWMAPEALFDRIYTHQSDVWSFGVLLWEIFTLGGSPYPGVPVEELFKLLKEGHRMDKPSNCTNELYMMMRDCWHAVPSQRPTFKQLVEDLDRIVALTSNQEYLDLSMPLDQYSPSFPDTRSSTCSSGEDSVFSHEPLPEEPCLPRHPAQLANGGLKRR
Compound,IC50 (PDGFR),IC50 (FGFR1)
"Cc1cc(C(=O)NCCn2ccnn2)c(/C=C2\C(=O)Nc3cccc(-c4cccc(Cl)c4)c32)[nH]1 [Example 34, 2-[4-(3-Chloro-phenyl)-2-oxo-1,2-dihydro-indol-3-ylidenemethyl]-5-methyl-1H-pyrrole-3-carboxylic Acid (2-[1,2,3]Triazol-1-yl-ethyl)-amide]",> 20000 nM,500 nM
"Cc1[nH]c(/C=C2\C(=O)Nc3cccc(-c4ccc(F)cc4)c32)c(C)c1C(=O)N1CCN(C)CC1 [Example 4, 3-[3,5-Dimethyl-4-(4-methyl-piperazine-1-carbonyl)-1H-pyrrol-2-ylmethylene]-4-(4-fluoro-phenyl)-1,3-dihydro-indol-2-one]",14600 nM,740 nM
"Cc1[nH]c(/C=C2\C(=O)Nc3cccc(-c4ccc(Br)cc4)c32)c(C)c1C(=O)NCCN(C(C)C)C(C)C [Example 60, 5-[4-(4-Bromo-phenyl)-2-oxo-1,2-dihydro-indol-3-ylidenemethyl]-2,4-dimethyl-1H-pyrrole-3-carboxylic Acid (2-Diisopropylamino-ethyl)-amide]",2370 nM,150 nM
"COc1cccc(-c2cccc3c2/C(=C/c2[nH]c(C)c(C(=O)NCCN(C(C)C)C(C)C)c2C)C(=O)N3)c1 [Example 52, 5-[4-(3-Methoxy-phenyl)-2-oxo-1,2-dihydro-indol-3-ylidenemethyl]-2,4-dimethyl-1H-pyrrole-3-carboxylic Acid (2-Diisopropylamino-ethyl)-amide]",1540 nM,35 nM
Cc1[nH]c(/C=C2\C(=O)Nc3cccc(-c4ccc(Br)cc4)c32)c(C)c1C(=O)N1CCN(C)CC1 [Example 53],> 20000 nM,1150 nM
"COc1ccc(-c2cccc3c2/C(=C/c2[nH]c(C)c(C(=O)NCCN4CCCC4)c2C)C(=O)N3)cc1 [Example 38, 5-[4-(4-Methoxy-phenyl)-2-oxo-1,2-dihydro-indol-3-ylidenemethyl]-2,4-dimethyl-1H-pyrrole-3-carboxylic Acid (2-Pyrrolidin-1-yl-ethyl)-amide]",2190 nM,80 nM
"Cc1[nH]c(/C=C2\C(=O)Nc3cccc(-c4ccccc4F)c32)c(C)c1C(=O)N1CCN(C)CC1 [Example 93, 3-[3,5-Dimethyl-4-(4-methyl-piperazine-1-carbonyl)-1H-pyrrol-2-ylmethylene]-4-(2-fluoro-phenyl)-1,3-dihydro-indol-2-one]",3760 nM,83 nM
"CCN(CC)CCNC(=O)c1c[nH]c(/C=C2\C(=O)Nc3cccc(-c4ccc(Br)cc4)c32)c1C [Example 61, 5-[4-(4-Bromo-phenyl)-2-oxo-1,2-dihydro-indol-3-ylidenemethyl]-4-methyl-1H-pyrrole-3-carboxylic Acid (2-Diethylamino-ethyl)-amide]",9120 nM,21 nM
"COc1ccc(-c2cccc3c2/C(=C/c2[nH]c(C)cc2C(=O)NCCN2CCCC2)C(=O)N3)cc1 [Example 41, 2-[4-(4-Methoxy-phenyl)-2-oxo-1,2-dihydro-indol-3-ylidenemethyl]-5-methyl-1H-pyrrole-3-carboxylic Acid (2-Pyrrolidin-1-yl-ethyl)-amide]",3840 nM,560 nM
"CCOC(=O)c1c(C)[nH]c(/C=C2\C(=O)Nc3cccc(-c4cccc(F)c4)c32)c1CCCN1CCN(C)CC1 [Example 18, 5-[4-(3-Fluoro-phenyl)-2-oxo-1,2-dihydro-indol-3-ylidenemethyl]-2-methyl-4-[3-(4-methyl-piperazin-1-yl)-propyl]-1H-pyrrole-3-carboxylic Acid Ethyl Ester]",10400 nM,1190 nM
"Cc1cc(C(=O)NCCN2CCCC2)c(/C=C2\C(=O)Nc3cccc(-c4ccc(F)c(Cl)c4)c32)[nH]1 [Example 119, 2-[4-(3-Chloro-4-fluoro-phenyl)-2-oxo-1,2-dihydro-indol-3-ylidenemethyl]-5-methyl-1H-pyrrole-3-carboxylic Acid (2-Pyrrolidin-1-yl-ethyl)-amide]",9870 nM,240 nM
"CCN(CC)CCNC(=O)c1c(C)[nH]c(/C=C2\C(=O)Nc3cccc(-c4ccccc4)c32)c1C [Example 3, 2,4-Dimethyl-5-(2-oxo-4-phenyl-1,2-dihydro-indol-3-ylidenemethyl)-1H-pyrrole-3-carboxylic Acid (2-Diethylamino-ethyl)-amide]",440 nM,31 nM
"COc1ccc(-c2cccc3c2/C(=C/c2[nH]c(C)c(C(=O)N4C[C@@H](C)N[C@@H](C)C4)c2C)C(=O)N3)cc1 [Example 40, 3-[4-((cis)-3,5-Dimethyl-piperazine-1-carbonyl)-3,5-dimethyl-1H-pyrrol-2-ylmethylene]-4-(4-methoxy-phenyl)-1,3-dihydro-indol-2-one]",11100 nM,190 nM
"CCN(CC)CCNC(=O)c1c(C)[nH]c(/C=C2\C(=O)Nc3cccc(-c4cccc(Cl)c4)c32)c1C [Example 29, 5-[4-(3-Chloro-phenyl)-2-oxo-1,2-dihydro-indol-3-ylidenemethyl]-2,4-dimethyl-1H-pyrrole-3-carboxylic Acid (2-Diethylamino-ethyl)-amide]",690 nM,29 nM
"Cc1[nH]c(/C=C2\C(=O)Nc3cccc(-c4cccc(C(F)(F)F)c4)c32)c(C)c1C(=O)N1CCN(C)CC1 [Example 104, 3-[3,5-Dimethyl-4-(4-methyl-piperazine-1-carbonyl)-H-pyrrol-2-ylmethylene]-4-(3-trifluoromethyl-phenyl)-1,3-dihydro-indol-2-one]",19000 nM,300 nM
"Cc1[nH]c(/C=C2\C(=O)Nc3cccc(-c4ccc(F)cc4)c32)c(C)c1C(=O)NCCN1CCCC1 [Example 6, 5-[4-(4-Fluoro-phenyl)-2-oxo-1,2-dihydro-indol-3-ylidenemethyl]-2,4-dimethyl-1H-pyrrole-3-carboxylic Acid (2-Pyrrolidin-1-yl-ethyl)-amide]",2950 nM,57 nM
